System: 422866-222-R5-J1-PDC complex spheroid viability
Experiment: Anticancer human tumor 422866-222-R5-J1-PDC patient-derived pancreatic adenocarcinoma cell line growth inhibition [POLQ]
Conditions: for IC50: curve of first compound; for viability, T/C: stronger effect = lower value
Procedure, shortened: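 Complex spheroid viability model combining PDC tumour cells with endothelial (HUVEC) and MSC stromal cells. Novobiocin, ART-558 or RP6685 were tested singly and in combination with standard and investigational anticancer drugs. Each was titrated in half-log steps from near clinical Cmax, or from 10 microM where Cmax was unknown.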

[1] = second compound 0.0316 µM, first compound 0.0316 µM
[2] = second compound 0.0316 µM, first compound 0.1 µM
[3] = second compound 0.0316 µM, first compound 0.316 µM
[4] = second compound 0.0316 µM, first compound 1 µM
[5] = second compound 0.0316 µM, first compound 3.16 µM
[6] = second compound 0.0316 µM, first compound 10 µM
[7] = second compound 0.1 µM, first compound 0.0316 µM
[8] = second compound 0.1 µM, first compound 0.1 µM
[9] = second compound 0.1 µM, first compound 0.316 µM
[10] = second compound 0.1 µM, first compound 1 µM
[11] = second compound 0.1 µM, first compound 3.16 µM
[12] = second compound 0.1 µM, first compound 10 µM
[13] = second compound 0.316 µM, first compound 0.0316 µM
[14] = second compound 0.316 µM, first compound 0.1 µM
[15] = second compound 0.316 µM, first compound 0.316 µM
[16] = second compound 0.316 µM, first compound 1 µM
[17] = second compound 0.316 µM, first compound 3.16 µM
[18] = second compound 0.316 µM, first compound 10 µM
[19] = second compound 1 µM, first compound 0.0316 µM
[20] = second compound 1 µM, first compound 0.1 µM
[21] = second compound 1 µM, first compound 0.316 µM
[22] = second compound 1 µM, first compound 1 µM
[23] = second compound 1 µM, first compound 3.16 µM
[24] = second compound 1 µM, first compound 10 µM
[25] = second compound 3.16 µM, first compound 0.0316 µM
[26] = second compound 3.16 µM, first compound 0.1 µM
[27] = second compound 3.16 µM, first compound 0.316 µM
[28] = second compound 3.16 µM, first compound 1 µM
[29] = second compound 3.16 µM, first compound 3.16 µM
[30] = second compound 3.16 µM, first compound 10 µM
[31] = second compound 10 µM, first compound 0.0316 µM
[32] = second compound 10 µM, first compound 0.1 µM
[33] = second compound 10 µM, first compound 0.316 µM
[34] = second compound 10 µM, first compound 1 µM
[35] = second compound 10 µM, first compound 3.16 µM
[36] = second compound 10 µM, first compound 10 µM
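Also: spheroids exposed to compounds for one week before readout.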
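For viability, T/C in this document: percent of DMSO vehicle wells luminescence so 100% = untreated viability.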

With `COc1cc(C2c3cc4c(cc3C(OC3OC5COC(C)OC5C(O)C3O)C3COC(=O)C23)OCO4)cc(OC)c1O` (centres undefined) + COC1C(OC(N)=O)C(O)C(Oc2ccc3c(O)c(NC(=O)c4ccc(O)c(CC=C(C)C)c4)c(=O)oc3c2C)OC1(C)C the IC50 (second compound 0.0316 µM) was 1330 nM, the IC50 (second compound 0.1 µM) was 966 nM and the IC50 (second compound 0.316 µM) was 770 nM. It also gave an IC50 (second compound 1 µM) of 1070 nM, an IC50 (second compound 3.16 µM) of 854 nM and an IC50 (second compound 10 µM) of 715 nM. It also gave a viability, T/C [1] of 97.7%, a viability, T/C [2] of 95% and a viability, T/C [3] of 72.5%. For the same compound, the viability, T/C [4] was 51.3%, the viability, T/C [5] was 45.4% and the viability, T/C [6] was 31.5%. It also gave a viability, T/C [7] of 103%, a viability, T/C [8] of 94.7% and a viability, T/C [9] of 73.5%. For the same compound, the viability, T/C [10] was 49.3%, the viability, T/C [11] was 38.2% and the viability, T/C [12] was 36.4%. For the same compound, the viability, T/C [13] was 101%, the viability, T/C [14] was 98.6% and the viability, T/C [15] was 61.8%. It also gave a viability, T/C [16] of 51.4%, a viability, T/C [17] of 35.7% and a viability, T/C [18] of 34.9%. It also gave a viability, T/C [19] of 109%, a viability, T/C [20] of 93.2% and a viability, T/C [21] of 85.5%. It also gave a viability, T/C [22] of 48.3%, a viability, T/C [23] of 38% and a viability, T/C [24] of 32.7%. It also gave a viability, T/C [25] of 87.2%, a viability, T/C [26] of 88.3% and a viability, T/C [27] of 82.4%. It also gave a viability, T/C [28] of 44.8%, a viability, T/C [29] of 39.4% and a viability, T/C [30] of 35.5%. For the same compound, the viability, T/C [31] was 96.1%, the viability, T/C [32] was 101% and the viability, T/C [33] was 64.4%. For the same compound, the viability, T/C [34] was 51%, the viability, T/C [35] was 41.3% and the viability, T/C [36] was 36.7%.

In the case of `CCCS(=O)(=O)Nc1ccc(F)c(C(=O)c2c[nH]c3ncc(-c4ccc(Cl)cc4)cc23)c1F` + Cc1cccc(N(C)C(=O)C2C(O)CCN2c2nc(C)cc(C(F)(F)F)c2C#N)c1, the IC50 (second compound 0.0316 µM) is reported as > 10000 nM, the IC50 (second compound 0.1 µM) is reported as > 10000 nM and the IC50 (second compound 0.316 µM) is reported as > 10000 nM. The IC50 (second compound 1 µM) was > 10000 nM, the IC50 (second compound 3.16 µM) was > 10000 nM and the IC50 (second compound 10 µM) was > 10000 nM. The viability, T/C [1] was 92.3%, the viability, T/C [2] was 115% and the viability, T/C [3] was 122%. The viability, T/C [4] was 156%, the viability, T/C [5] was 214% and the viability, T/C [6] was 102%. The viability, T/C [7] was 93%, the viability, T/C [8] was 99.1% and the viability, T/C [9] was 111%. It also gave a viability, T/C [10] of 138%, a viability, T/C [11] of 200% and a viability, T/C [12] of 102%. The viability, T/C [13] was 92.6%, the viability, T/C [14] was 105% and the viability, T/C [15] was 135%. For the same compound, the viability, T/C [16] was 164%, the viability, T/C [17] was 143% and the viability, T/C [18] was 94.9%. For the same compound, the viability, T/C [19] was 98.5%, the viability, T/C [20] was 104% and the viability, T/C [21] was 124%. For the same compound, the viability, T/C [22] was 145%, the viability, T/C [23] was 192% and the viability, T/C [24] was 94.8%. The viability, T/C [25] was 99.4%, the viability, T/C [26] was 105% and the viability, T/C [27] was 138%. The viability, T/C [28] was 163%, the viability, T/C [29] was 205% and the viability, T/C [30] was 107%. The viability, T/C [31] was 84.4%, the viability, T/C [32] was 97% and the viability, T/C [33] was 124%. The viability, T/C [34] was 149%, the viability, T/C [35] was 188% and the viability, T/C [36] was 79.2%.

Reference: PubChem BioAssay AID1963844 (Molecular Pharmacology Branch, DTP, NCI, 2024)
